Assay results from patent US7419980B2, “Fused-aryl and heteroaryl derivatives and methods of their use” (Wyeth, priority 2003, dated 2008).
Counter-ions that a name gives are not always drawn. Like-named read-outs stand apart in the source and are kept apart here.

Target: T1, human hNET (Homo sapiens, UniProt P23975)
T1 construct: expressed in transfected cells; host or cells: MDCK-Net6 (MDCK cells stably transfected with hNET)
Assay: Norepinephrine (NE) uptake assay in MDCK-Net6 cells
Type: cell-based
Procedure: MDCK-Net6 cells, stably transfected with human hNET (Pacholczyk, T., R. D. Blakely, and S. G. Amara, Nature, 1991, 350(6316): p. 350-4) were cultured in growth medium containing high glucose DMEM (Gibco, Cat. No. 11995), 10% FBS (dialyzed, heat-inactivated, US Bio-Technologies, Lot FBD1129HI) and 500 μg/ml G418 (Gibco, Cat. No. 10131). Cells were plated at 300,000/T75 flask and cells were split twice weekly. The JAR cell line (human placental choriocarcinoma) was purchased from ATCC (Cat. No. HTB-144). The cells were cultured in growth medium containing RPMI 1640 (Gibco, Cat. No. 72400), 10% FBS (Irvine, Cat. No. 3000), 1% sodium pyruvate (Gibco, Cat. No. 1136) and 0.25% glucose. Cells were plated at 250,000 cells/T75 flask and split twice weekly. For all assays, cells were plated in Wallac 96-well sterile plates (PerkinElmer, Cat. No. 3983498).
On day 1, cells were plated at 3,000 cells/well in growth medium and maintained in a cell incubator (37° C., 5% CO2). On day 2, growth medium was replaced with 200 μl of assay buffer (25 mM HEPES; 120 mM NaCl; 5 mM KCl; 2.5 mM CaCl2; 1.2 mM MgSO4; 2 mg/ml glucose (pH 7.4, 37° C.)) containing 0.2 mg/ml ascorbic acid and 10 μM pargyline. Plates containing cells with 200 μl of assay buffer were equilibrated for 10 minutes at 37° C. prior to addition of compounds. A stock solution of desipramine was prepared in DMSO (10 mM) and delivered to triplicate wells containing cells for a final tert concentration of 1 μM. Data from these wells were used to define non-specific NE uptake (minimum NE uptake). Test compounds were prepared in DMSO (10 mM) and diluted in assay buffer according to tert range (1 to 10,000 nM). Twenty-five microliters of assay buffer (maximum NE uptake) or tert compound were added directly to triplicate wells containing cells in 200 μl of assay buffer. The cells in assay buffer with tert compounds were incubated for 20 minutes at 37° C. To initiate the NE uptake, [^3H]NE diluted in assay buffer (120 nM final assay concentration) was delivered in 25 μl aliquots to each well and the plates were incubated for 5 minutes (37° C.). The reaction was terminated by decanting the supernatant from the plate. The plates containing cells were washed twice with 200 μl assay buffer (37° C.) to remove free radioligand. The plates were then inverted, left to dry for 2 minutes, then reinverted and air-dried for an additional 10 minutes. The cells were lysed in 25 μl of 0.25 N NaOH solution (4° C.), placed on a shake table and vigorously shaken for 5 minutes. After cell lysis, 75 μl of scintillation cocktail was added to each well and the plates were sealed with film tape. The plates were returned to the shake table and vigorously shaken for a minimum of 10 minutes to ensure adequate partitioning of organic and aqueous solutions. The plates were counted in a Wallac Microbeta counter (PerkinElmer) to collect the raw cpm data.
For each experiment, a data stream of cpm values collected from the Wallac Microbeta counter was downloaded to a Microsoft Excel statistical application program. Calculations of EC50 values were made using the transformed-both-sides logistic dose response program written by Wyeth Biometrics Department. The statistical program uses mean cpm values from wells representing maximum binding or uptake (assay buffer) and mean cpm values from wells representing minimum binding or uptake ((1 μM desipramine (hNET) or 1 μM paroxetine (hSERT)). Estimation of the EC50 value was completed on a log scale and the line was fit between the maximum and minimum binding or uptake values. All graphic data representation was generated by normalizing each data point to a mean percent based on the maximum and minimum binding or uptake values. The EC50 values reported from multiple experiments were calculated by pooling the raw data from each experiment and analyzing the pooled data as one experiment.

[1] = 1 μM test compound, [3H]NE uptake, MDCK-Net6 cells, read-out: % Inhibition @ 1 μM (hNET)
[2] = MDCK-Net6, read-out: % Inhibition @ 1 μM (hNET)

T1 sequence (P23975 whole entry): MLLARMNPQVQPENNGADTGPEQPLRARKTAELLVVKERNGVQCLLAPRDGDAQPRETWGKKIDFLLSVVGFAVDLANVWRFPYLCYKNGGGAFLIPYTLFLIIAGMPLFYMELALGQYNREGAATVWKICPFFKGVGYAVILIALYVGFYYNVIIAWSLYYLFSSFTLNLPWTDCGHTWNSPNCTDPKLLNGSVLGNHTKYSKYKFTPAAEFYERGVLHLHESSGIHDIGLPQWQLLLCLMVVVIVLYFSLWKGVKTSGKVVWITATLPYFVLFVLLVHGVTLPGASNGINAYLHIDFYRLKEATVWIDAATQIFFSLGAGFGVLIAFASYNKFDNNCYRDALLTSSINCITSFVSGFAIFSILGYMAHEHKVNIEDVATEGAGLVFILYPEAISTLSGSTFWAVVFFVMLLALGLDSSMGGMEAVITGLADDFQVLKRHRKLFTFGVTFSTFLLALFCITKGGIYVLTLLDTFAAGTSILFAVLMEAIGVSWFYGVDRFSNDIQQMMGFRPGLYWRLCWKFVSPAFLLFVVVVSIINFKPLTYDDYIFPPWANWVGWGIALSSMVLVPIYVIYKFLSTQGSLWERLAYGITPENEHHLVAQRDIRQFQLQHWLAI

| inhibition at 1 µM [1] [%] | SMILES | EC50 ([3H]NE uptake, MDCK-Net6 cells) [nM] | inhibition at 1 µM [2] [%] |
| --- | --- | --- | --- |
|  | OC1(C(CN2CCNCC2)c2cccc(Cl)c2)CCCCC1 (stereo not drawn) [Example 1, 1-[1-(3-chlorophenyl)-2-piperazin-1-ylethyl]cyclohexanol Dihydrochloride] | 18 |  |
| 97 | OC1(C(CN2CCNCC2)c2ccc3ccccc3c2)CCC1 (stereo not drawn) [Example 5, 1-[1-(2-naphthyl)-2-piperazin-1-ylethyl]cyclobutanol Dihydrochloride] | 160 |  |
| 86 | OC1(C(CN2CCNCC2)c2cccc3ccccc23)CCCCC1 (stereo not drawn) [Example 21, 1-[1-(1-naphthyl)-2-piperazin-1-ylethyl]cyclohexanol Dihydrochloride] | 57 |  |
| 44 | OC1(C(CN2CCNCC2)c2cccc3ccccc23)CCCC1 (stereo not drawn) [Example 45, 1-[1-(1-naphthyl)-2-piperazin-1-ylethyl]cyclopentanol Dihydrochloride] |  |  |
| 34 | CCC(O)(CC)C(CN1CCNCC1)c1cccc2ccccc12 (stereo not drawn) [Example 53, 3-ethyl-2-(1-naphthyl)-1-piperazin-1-ylpentan-3-ol Dihydrochloride] |  |  |
| 36 | CN1CCN(CC(c2cccc3ccccc23)C2(O)CCCC2)CC1 (stereo not drawn) [Example 56, 1-[2-(4-methylpiperazin-1-yl)-1-(1-naphthyl)ethyl]cyclopentanol Dihydrochloride] |  |  |
| 33 | CN1CCC(O)(C(CN2CCNCC2)c2ccc3ccccc3c2)CC1 (stereo not drawn) [Example 59, 1-methyl-4-[1-(2-naphthyl)-2-piperazin-1-ylethyl]piperidin-4-ol Dihydrochloride] |  |  |
| 26 | OC1(C(CN2CCNCC2)c2ccc3ccccc3c2)CCCCC1 (stereo not drawn) [Example 63, 1-[1-(2-naphthyl)-2-piperazin-1-ylethyl]cyclohexanol Dihydrochloride] |  |  |
| 28 | CN1CCN(CC(c2ccc3ccccc3c2)C2(O)CCCCC2)CC1 (stereo not drawn) [Example 64, 1-[2-(4-methylpiperazin-1-yl)-1-(2-naphthyl)ethyl]cyclohexanol Dihydrochloride] |  |  |
| 23 | OC1(C(CN2CCNCC2)c2cccc3ccccc23)CCC1 (stereo not drawn) [Example 68, 1-[1-(1-naphthyl)-2-piperazin-1-ylethyl]cyclobutanol Dihydrochloride] |  |  |
| 26 | CN1CCN(CC(c2cccc3ccccc23)C2(O)CCC2)CC1 (stereo not drawn) [Example 69, 1-[2-(4-methylpiperazin-1-yl)-1-(1-naphthyl)ethyl]cyclobutanol Dihydrochloride] |  |  |
| 22 | CC(C)(C)C1CCC(O)(C(CN2CCNCC2)c2cccc3ccccc23)CC1 (stereo not drawn) [Example 76, 4-tert-butyl-1-[1-(1-naphthyl)-2-piperazin-1-ylethyl]cyclohexanol Dihydrochloride] |  |  |
| 15 | CCC(O)(CC)C(CN1CCN(C)CC1)c1cccc2ccccc12 (stereo not drawn) [Example 89, 3-ethyl-1-(4-methylpiperazin-1-yl)-2-(1-naphthyl)pentan-3-ol Dihydrochloride] |  |  |
| 14 | CCC1CCC(O)(C(CN2CCNCC2)c2cccc3ccccc23)CC1 (stereo not drawn) [Example 91, 4-ethyl-1-[1-(1-naphthyl)-2-piperazin-1-ylethyl]cyclohexanol Dihydrochloride] |  |  |
| 5 | CC1CCC(O)(C(CN2CCNCC2)c2cccc3ccccc23)CC1 (stereo not drawn) [Example 97, 4-methyl-1-[1-(1-naphthyl)-2-piperazin-1-ylethyl]cyclohexanol Dihydrochloride] |  |  |
| 4 | CN1CCN(CC(c2cccc3ccccc23)C2(O)CCC(C(C)(C)C)CC2)CC1 (stereo not drawn) [Example 100, 4-tert-butyl-1-[2-(4-methylpiperazin-1-yl)-1-(1-naphthyl)ethyl]cyclohexanol Dihydrochloride] |  |  |

| inhibition at 1 µM [1] [%] | SMILES | EC50 ([3H]NE uptake, MDCK-Net6 cells) [nM] | inhibition at 1 µM [2] [%] |
| --- | --- | --- | --- |
| 3 | CN1CCC(O)(C(CN2CCOCC2)c2ccc3ccccc3c2)CC1 (stereo not drawn) [Example 102, 1-methyl-4-[2-morpholin-4-yl-1-(2-naphthyl)ethyl]piperidin-4-ol Hydrochloride] |  |  |
| 2 | OC1(C(CN2CCOCC2)c2ccc3ccccc3c2)CCCCC1 (stereo not drawn) [Example 106, 1-[2-morpholin-4-yl-1-(2-naphthyl)ethyl]cyclohexanol Hydrochloride] |  |  |
| 0 | OC1(C(CN2CCOCC2)c2ccc3ccccc3c2)CCC1 (stereo not drawn) [Example 109, 1-[2-morpholin-4-yl-1-(2-naphthyl)ethyl]cyclobutanol Hydrochloride] |  |  |
|  | OC1(C(CN2CCNCC2)c2cc(Cl)sc2Cl)CCCCC1 (stereo not drawn) [Example 141, 1-[1-(2,5-dichlorothien-3-yl)-2-piperazine-1-ylethyl]cyclohexanol Dihydrochloride] | 240 | 94 |
| 51 | OC1(C(CN2CCNCC2)c2ccc(Cl)s2)CCCCC1 (stereo not drawn) [Example 142, 1-[1-(5-chlorothien-2-yl)-2-piperazin-1-ylethyl]cyclohexanol Dihydrochloride] |  |  |
| 47 | OC1(C(CN2CCNCC2)c2ccc(Br)s2)CCCCC1 (stereo not drawn) [Example 143, 1-[1-(5-bromothien-2-yl)-2-piperazin-1-ylethyl]cyclohexanol Dihydrochloride] |  |  |
|  | OC1(C(CN2CCNCC2)c2csc(Cl)c2)CCCCC1 (stereo not drawn) [Example 144, 1-[1-(5-chlorothien-3-yl)-2-piperazin-1-ylethyl]cyclohexanol Dihydrochloride] | 100 | 86 |
|  | NC1CCN(CC(c2csc(Cl)c2)C2(O)CCCCC2)CC1 (stereo not drawn) [Example 145, 1-[2-(4-aminopiperidin-1-yl)-1-(5-chlorothien-3-yl)ethyl]cyclohexanol Dihydrochloride] |  | 38 |
|  | OC1(C(CN2CCNCC2)c2csc3ccccc23)CCCCC1 (stereo not drawn) [Example 146, 1-[1-(1-benzothien-3-yl)-2-piperazin-1-ylethyl]cyclohexanol Dihydrochloride] | 120 | 82 |
| 32 | Cn1cc(C(CN2CCNCC2)C2(O)CCCCC2)c2ccccc21 (stereo not drawn) [Example 154, 1-[1-(1-methyl-1H-indol-3-yl)-2-piperazin-1-ylethyl]cyclohexanol Dihydrochloride] |  |  |
| 21 | OC1(C(CN2CCNCC2)c2c[nH]c3ccccc23)CCCCC1 (stereo not drawn) [Example 155, 1-[1-(1H-indol-3-yl)-2-piperazin-1-ylethyl]cyclohexanol Dihydrochloride] |  |  |
|  | OC1(C(CN2CCNCC2)c2ccsc2Cl)CCCCC1 (stereo not drawn) [Example 156, 1-[1-(2-chlorothien-3-yl)-2-piperazin-1-ylethyl]cyclohexanol Dihydrochloride] | 720 | 55 |
|  | CN1CCN(CC(c2csc(Cl)c2)C2(O)CCCCC2)CC1 (stereo not drawn) [Example 159, 1-[1-(5-chlorothien-3-yl)-2-(4-methylpiperazin-1-yl)ethyl]cyclohexanol Dihydrochloride] | 25 | 88 |
|  | CN1CCN(C[C@@H](c2csc(Cl)c2)C2(O)CCCCC2)CC1 [Example 258, 1-[(1R)-1-(5-chlorothien-3-yl)-2-(4-methylpiperazin-1-ylethyl]cyclohexanol Dihydrochloride] |  | 91 |
|  | CN1CCN(C[C@H](c2csc(Cl)c2)C2(O)CCCCC2)CC1 [Example 259, 1-[(1S)-1-(5-chlorothien-3-yl)-2-(4-methylpiperazin-1-yl)ethyl]cyclohexanol Dihydrochloride] |  | 20 |
| 75 | OC1(C(CN2CCNCC2)c2csc3ccc(Cl)cc23)CCCCC1 (stereo not drawn) [Example 260, 1-[1-(5-chloro-1-benzothien-3-yl)-2-piperazin-1-ylethyl]cyclohexanol Dihydrochloride] |  |  |
